The text below walks through data of US20240425479A1, “HALO-SUBSTITUTED AMINO AZA-HETEROARYL COMPOUNDS AS INHIBITORS OF THE HAEMATOPOIETIC PROGENITOR KINASE 1 (HPK1)” (priority 2021, published 2024).

Structures are written as SMILES.

Broadly, the IC50 is the concentration that gives 50% inhibition.

In this test the target is T1, Recombinant (1-346) HPK1 (h) (Homo sapiens, UniProt Q92918).
T1 construct: Recombinant (1-346) HPK1 (h) is incubated with 8 mM MOPS pH 7.0
T1 sequence (Q92918 1-346): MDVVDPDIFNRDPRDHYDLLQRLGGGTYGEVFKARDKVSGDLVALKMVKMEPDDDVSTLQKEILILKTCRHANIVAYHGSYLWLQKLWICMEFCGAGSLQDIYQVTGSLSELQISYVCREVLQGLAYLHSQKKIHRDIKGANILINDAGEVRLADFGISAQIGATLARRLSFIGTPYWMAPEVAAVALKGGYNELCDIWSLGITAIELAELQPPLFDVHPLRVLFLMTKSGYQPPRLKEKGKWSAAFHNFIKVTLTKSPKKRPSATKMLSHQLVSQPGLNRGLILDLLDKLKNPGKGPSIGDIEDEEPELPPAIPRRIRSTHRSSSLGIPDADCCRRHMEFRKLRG
The experiment in a line: HPK1 human STE kinase enzymatic radiometric assay. It counts as biochemical. The following applies: read-out: HPK1 IC50 nM Range. The essentials:
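Compounds in 3-fold, 9-point serial dilution; kinase (residues 1-346) phosphorylates myelin basic protein (0.33 mg/mL) using [gamma-33P]-ATP at pH 7.0 (MOPS, EDTA, Mg acetate) for 40 min, room temperature. Acid-quenched mixture filtered onto P30 mats; incorporated radioactivity read by scintillation counting.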
For the compound `CN(C)Cc1cc(-c2nc(-c3ccc4c(=O)[nH]cc(F)c4c3)c(N)nc2F)ccc1F` [Example I-276, 6-(3-amino-6-(3-((dimethylamino)methyl)-4-fluorophenyl)-5-fluoropyrazin-2-yl)-4-fluoroisoquinolin-1(2H)-one], the IC50 lay in the range of 11 to 100 nM.

Regarding `C[C@H]1CN(c2ccc(-c3nc(-c4cc5c(cc4F)C(=O)NCC5)c(N)nc3F)cc2CN(C)C)CCO1` [Example I-212, (S)-6-(3-amino-6-(3-((dimethylamino)methyl)-4-(2-methylmorpholino)phenyl)-5-fluoropyrazin-2-yl)-7-fluoro-3,4-dihydroisoquinolin-1(2H)-one], the IC50 lay within 0.1 to 10 nM. With `Cc1cc2cc(-c3nc(-c4ccc(N5CCN(CCCC(F)F)CC5)cc4)c(F)nc3N)cc(F)c2c(=O)[nH]1` [Example I-159, 6-(3-amino-6-(4-(4-(4,4-difluorobutyl)piperazin-1-yl)phenyl)-5-fluoropyrazin-2-yl)-8-fluoro-3-methylisoquinolin-1(2H)-one], the IC50 was 0.1 to 10 nM. For `CN(C)Cc1cc(-c2nc(-c3ccc4c(c3)CCNC4=O)c(N)nc2F)cnc1N1CCOCC1` [Example I-237, 6-(3-amino-6-(5-((dimethylamino)methyl)-6-morpholinopyridin-3-yl)-5-fluoropyrazin-2-yl)-3,4-dihydroisoquinolin-1(2H)-one], the IC50 lay in the range of 11 to 100 nM. For `Cc1nc2cc(-c3nc(-c4ccc(N5CCN(CC6CC6)CC5)cc4)c(F)nc3N)ccc2c(=O)[nH]1` [Example I-79, 7-(3-amino-6-(4-(4-(cyclopropylmethyl)piperazin-1-yl)phenyl)-5-fluoropyrazin-2-yl)-2-methylquinazolin-4(3H)-one] the value was 101 to 1000 nM; for `Cc1nc2cc(-c3nc(-c4ccc(N5C[C@@H](C)N(C)[C@@H](C)C5)cc4)c(F)nc3N)ccc2c(=O)[nH]1` [Example I-95, 7-(3-amino-5-fluoro-6-(4-((3R,5S)-3,4,5-trimethylpiperazin-1-yl)phenyl)pyrazin-2-yl)-2-methylquinazolin-4(3H)-one], 11 to 100 nM. With `C[C@H]1CN(c2ccc(-c3nc(-c4cc(F)c5c(c4)CCNC5=O)c(N)nc3F)cc2CN2CCC2)CCO1` [Example I-216, (S)-6-(3-amino-6-(3-(azetidin-1-ylmethyl)-4-(2-methylmorpholino)phenyl)-5-fluoropyrazin-2-yl)-8-fluoro-3,4-dihydroisoquinolin-1(2H)-one] the figure was 11 to 100 nM.

With `Cc1c[nH]c(=O)c2ccc(-c3nc(-c4ccc(N5CCN(C6CCC6)CC5)cc4)c(F)nc3N)cc12` [Example I-139, 6-(3-amino-6-(4-(4-cyclobutylpiperazin-1-yl)phenyl)-5-fluoropyrazin-2-yl)-4-methylisoquinolin-1(2H)-one], the IC50 fell in the range of 0.1 to 10 nM. For `COCCN(C)Cc1cc(-c2nc(-c3cc(F)c4c(c3)CCNC4=O)c(N)nc2F)ccc1C1CCOCC1` [Example I-176, 6-(3-amino-5-fluoro-6-(3-(((2-methoxyethyl)(methyl)amino)methyl)-4-(tetrahydro-2H-pyran-4-yl)phenyl)pyrazin-2-yl)-8-fluoro-3,4-dihydroisoquinolin-1(2H)-one] the value was 0.1 to 10 nM; for `COCCN(C)Cc1cc(-c2nc(-c3cc4c(cc3F)C(=O)NCC4)c(N)nc2F)ccc1N1CCOCC1` [Example I-161, 6-(3-amino-5-fluoro-6-(3-(((2-methoxyethyl)(methyl)amino)methyl)-4-morpholinophenyl)pyrazin-2-yl)-7-fluoro-3,4-dihydroisoquinolin-1(2H)-one], 0.1 to 10 nM. For `CN(C)Cc1cc(-c2nc(-c3ccc4c(=O)[nH]cc(F)c4c3)c(N)nc2F)cc2c1OCCC2` [Example I-268, 6-(3-amino-6-(8-((dimethylamino)methyl)chroman-6-yl)-5-fluoropyrazin-2-yl)-4-fluoroisoquinolin-1(2H)-one] the value was 0.1 to 10 nM; for `CO[C@H]1CCN(Cc2cc(-c3nc(-c4cc5c(cc4F)C(=O)NCC5)c(N)nc3F)ccc2N2CCOCC2)C1` [Example I-157, (S)-6-(3-amino-5-fluoro-6-(3-((3-methoxypyrrolidin-1-yl)methyl)-4-morpholinophenyl)pyrazin-2-yl)-7-fluoro-3,4-dihydroisoquinolin-1(2H)-one], 0.1 to 10 nM. `COC1CCN(Cc2cc(-c3nc(-c4ccc5c(c4)CCNC5=O)c(N)nc3F)ccc2N2CCSCC2)CC1` [Example I-126, 6-(3-amino-5-fluoro-6-(3-((4-methoxypiperidin-1-yl)methyl)-4-thiomorpholinophenyl)pyrazin-2-yl)-3,4-dihydroisoquinolin-1(2H)-one]: the IC50 lay in the range of 11 to 100 nM. On to `CN(C)Cc1cc(-c2nc(-c3cc4c(cc3F)C(=O)NCC4)c(N)nc2F)ccc1F` [Example I-273, 6-(3-amino-6-(3-((dimethylamino)methyl)-4-fluorophenyl)-5-fluoropyrazin-2-yl)-7-fluoro-3,4-dihydroisoquinolin-1(2H)-one], for which the IC50 is 11 to 100 nM.

Take `Nc1nc(F)c(-c2ccc(C3CCOCC3)c(CN3CCCC3)c2)nc1-c1ccc2c(c1)CCNC2=O` [Example I-147, 6-(3-amino-5-fluoro-6-(3-(pyrrolidin-1-ylmethyl)-4-(tetrahydro-2H-pyran-4-yl)phenyl)pyrazin-2-yl)-3,4-dihydroisoquinolin-1(2H)-one]: the 50% inhibitory concentration (IC50) was in the range of 0.1 to 10 nM.

As for `Cc1c[nH]c(=O)c2ccc(-c3nc(-c4cc(F)c(N5CCOCC5)c(CN(C)C)c4)c(F)nc3N)cc12` [Example I-266, 6-(3-amino-6-(3-((dimethylamino)methyl)-5-fluoro-4-morpholinophenyl)-5-fluoropyrazin-2-yl)-4-methylisoquinolin-1(2H)-one], the IC50 lay within 0.1 to 10 nM. Turning to `CO[C@@H]1CCN(Cc2cc(-c3nc(-c4ccc5c(c4)CCNC5=O)c(N)nc3F)ccc2N2CCOCC2)C1` [Example I-151, (R)-6-(3-amino-5-fluoro-6-(3-((3-methoxypyrrolidin-1-yl)methyl)-4-morpholinophenyl)pyrazin-2-yl)-3,4-dihydroisoquinolin-1(2H)-one], the IC50 was 0.1 to 10 nM.

`Cc1[nH]c(=O)c2c(F)cc(-c3nc(-c4ccc(N5CCOCC5)c(CN(C)C)c4)c(F)nc3N)cc2c1Cl` [Example I-109, 6-(3-amino-6-(3-((dimethylamino)methyl)-4-morpholinophenyl)-5-fluoropyrazin-2-yl)-4-chloro-8-fluoro-3-methylisoquinolin-1(2H)-one]: the IC50 was 0.1 to 10 nM. With `Nc1nc(F)c(-c2ccc(OC3CCOCC3)c(CN3CCC3)c2)nc1-c1ccc2c(c1)CCNC2=O` [Example I-208, 6-(3-amino-6-(3-(azetidin-1-ylmethyl)-4-((tetrahydro-2H-pyran-4-yl)oxy)phenyl)-5-fluoropyrazin-2-yl)-3,4-dihydroisoquinolin-1(2H)-one] the figure was 11 to 100 nM; with `Cc1cc2cc(-c3nc(-c4ccc(C5CCOCC5)c(CN(C)C)c4)c(F)nc3N)c(F)cc2c(=O)[nH]1` [Example I-184, 6-(3-amino-6-(3-((dimethylamino)methyl)-4-(tetrahydro-2H-pyran-4-yl)phenyl)-5-fluoropyrazin-2-yl)-7-fluoro-3-methylisoquinolin-1(2H)-one], 0.1 to 10 nM. Turning to `CN(C)Cc1cc(-c2nc(-c3ccc4c(c3)CCNC4=O)c(N)nc2F)c(F)c(F)c1N1CCOCC1` [Example I-262, 6-(3-amino-6-(5-((dimethylamino)methyl)-2,3-difluoro-4-morpholinophenyl)-5-fluoropyrazin-2-yl)-3,4-dihydroisoquinolin-1(2H)-one], the IC50 lay in the range of 101 to 1000 nM. With `CN(C)Cc1cc(-c2nc(-c3ccc4c(=O)[nH]cc(F)c4c3)c(N)nc2F)c(F)c(F)c1N1CCOCC1` [Example I-263, 6-(3-amino-6-(5-((dimethylamino)methyl)-2,3-difluoro-4-morpholinophenyl)-5-fluoropyrazin-2-yl)-4-fluoroisoquinolin-1(2H)-one] the figure was 11 to 100 nM. For `CN(C)[C@@H]1CCOc2ccc(-c3nc(-c4ccc5c(=O)[nH]ccc5c4)c(N)nc3F)cc21` [Example I-286, (R)-6-(3-amino-6-(4-(dimethylamino)chroman-6-yl)-5-fluoropyrazin-2-yl)isoquinolin-1(2H)-one] the value was 11 to 100 nM; for `Cc1cc(-c2nc(-c3cc4c(cc3F)C(=O)NCC4)c(N)nc2F)ccc1C1CCOCC1` [Example I-222, 6-(3-amino-5-fluoro-6-(3-methyl-4-(tetrahydro-2H-pyran-4-yl)phenyl)pyrazin-2-yl)-7-fluoro-3,4-dihydroisoquinolin-1(2H)-one], 0.1 to 10 nM; for `C[C@H]1CCCN1Cc1cc(-c2nc(-c3ccc4c(=O)[nH]cc(F)c4c3)c(N)nc2F)ccc1C1CCOCC1` [Example I-228, (S)-6-(3-amino-5-fluoro-6-(3-((2-methylpyrrolidin-1-yl)methyl)-4-(tetrahydro-2H-pyran-4-yl)phenyl)pyrazin-2-yl)-4-fluoroisoquinolin-1(2H)-one], 0.1 to 10 nM. On to `COC1CCN(Cc2cc(-c3nc(-c4cc5c(cc4F)C(=O)NCC5)c(N)nc3F)ccc2N2CCOCC2)CC1` [Example I-118, 6-(3-amino-5-fluoro-6-(3-((4-methoxypiperidin-1-yl)methyl)-4-morpholinophenyl)pyrazin-2-yl)-7-fluoro-3,4-dihydroisoquinolin-1(2H)-one], for which the IC50 is 11 to 100 nM.
